Laboratory results as given in publication PMC10342150, “Artesunate Dry Emulsion Formulation Combined with Antibiotics for Treatment of Helicobacter pylori Infections: In Vitro/In Vivo Evaluation” (International Journal of Molecular Sciences, 2023).

Legend:
H. pylori PremSS1 = test: In vivo efficacy against H. pylori in infected mice (bacterial culture and qPCR of stomach); parameters: species or system C57BL/6 mice; conditions: oral, single dose per day for 14 days; ADEF 40 mg/kg, amox 30 mg/kg, PPI 150 mg/kg; bacterial culture and qPCR (Figure 8A,B)
From the text: Animals: A mouse model of H.-pylori-induced disease using pre-murine Sydney strain-1 (PremSS1) in mice C57BL/6 was extensively used in Helicobacter research. The persistence of mouse colonization, distribution, and long-lasting infection is attributable to the strain’s capabilities. For these reasons mice C57BL/6 were selected in this study. In fact, male mice with «specific pathogen-free» status (CHU of Bordeaux, Amélie Raba-Léon place, Bordeaux Cedex) at 6 weeks of age were housed in an acclimatization room for 1 week before experimentation.
Mouse gavage with H. pylori: Mice were fasted the day before the gavage days. They were force-fed with approximately 10^8 H. pylori PremSS1 in 100 µL of phosphate-buffered saline in the morning and then placed in a cage for the rest of the day under normal conditions. The gavages were carried out on three consecutive days. A bacteria viability test was accomplished post-gavage by platting a bacterial pellet on «Poly-house-made» agar for 24 h. […]
Each quarter of the mouse stomach was placed in a tube that was RNASE and DNASE free, containing 200 μL of physiological water. […] The remaining 90 µL were extracted for H. pylori quantification using qPCR. […] All samples were prepared in duplicate, and the results were expressed as cfu/mg of stomach tissue. […]

[1] = Solubility in simulated gastric fluid (SGF, pH 1.5); assay type: physicochemical; conditions: 0.5 g in 10 mL SGF pH 1.5, 36.5 °C, 30 min stirring
Protocol: An amount of 0.5 g of native artesunate and ADEF was dispersed in 10 mL of simulated gastric fluid (SGF, pH 1.5). All solutions were incubated at 36.5 °C under mild shaking (100 rev/min) in a G24 Environmental Incubator Shaker (New Brunswick Scientific Co., Edison, NJ, USA) for 30 min.

[2] = parameters: method as in PMID 17694524; conditions: cited from earlier work
[3] = Pharmacokinetics after single oral (gavage) administration in rats; conditions: different doses (up to 150 mg/kg)
Protocol: (§1) The objective of this study was to investigate the pharmacokinetic (PK) profile of ADEF after a single oral (gavage) administration to rats at the following doses: • Low dose: 25 and 50 mg/kg of ADEF; • Mid dose: 100 mg/kg of ADEF; • High dose: 150 mg/kg of ADEF.
(§2) For comparative study, native artesunate was also included in this study, but only at a high dose of 150 mg/kg.
(§3) After a 1-week acclimation period, ADEF was administered orally to rats, and blood samples were collected at various time intervals (5, 10, 15, 30, 45, and 60 min) using K2EDTA tubes as anticoagulants. The collected tubes were then placed on wet ice. Subsequently, the samples were centrifuged at 1000× g for 10 min at 4 °C. The resulting plasma was recovered and stored frozen at temperatures below or equal to −60 °C for further analysis.
(§4) Non-compartmental analysis of the test item and its metabolite concentrations in plasma was performed by using the Phoenix® WinNonlin®6 6.4 software.

[4] = parameters: method as in earlier work; conditions: artesunate in acidic form; cited from earlier work
in vivo = conditions: male, Sprague-Dawley, rat, plasma, po, 150 mg/kg
Protocol: as §1, §2, §3, §4

Helicobacter pylori = test: Agar disk diffusion assay; assay type: cell-based; conditions: paper disks, ~20 mg/mL
Protocol: Practically, impregnated paper disks with a determined concentration (~20 mg/mL) of ADEF were deposited on the surface of a standardized culture medium previously inoculated with a calibrated inoculum of a pure culture of H. pylori. After incubation, the Petri dishes were examined, and the diameters of the zones of inhibition surrounding the disks were measured. The obtained values were thereafter compared to the critical values of the different antimicrobial standards to determine the clinical categorization (resistant, intermediate, sensitive).

In the case of CC1(C)S[C@@H]2[C@H](NC(=O)[C@H](N)c3ccc(O)cc3)C(=O)N2[C@H]1C(=O)O [amox, amoxicillin], the “Effect against H. pylori in infected mice” value (H. pylori PremSS1) is reported as “did not exhibit a significant effect”.

For C[C@H]1[C@H](OC(=O)CCC(=O)O)O[C@@H]2O[C@@]3(C)CC[C@H]4[C@H](C)CC[C@@H]1[C@@]24OO3 [Native Artesunate, artesunate], the “Solubility in simulated gastric fluid” value [1] is given as “did not dissolve”, the “Stability in aqueous, acidic and basic media” value [2] is given as “unstable” and the “Mortality or abnormal signs” value [3] is given as “no mortality or abnormal signs”. For the same compound, the Water solubility [4] was “about 0.68 % (w/w)”, the AUC(0-t) (in vivo) was 211 ng·h/mL and the Cmax (in vivo) was 701 ng/mL. The Tmax (in vivo) was 15 min, the half-life (in vivo) was 18 min and the Inhibition zone (Helicobacter pylori) was “two distinct zones were observed”.

In the case of COc1ccnc(C[S+]([O-])c2nc3ccc(OC(F)F)cc3[nH]2)c1OC (centres unmarked) [PPI, pantoprazole], the “Effect against H. pylori in infected mice” value (H. pylori PremSS1) is reported as “did not exhibit a significant effect”.
